Patent publication US8729125B2, “Ophthalmic compositions and methods for treating eyes” (Allergan, Inc., priority 2004, dated 2014)
Structures can show the parent of a compound that is named as a salt. Where two headings read alike, the source gives them in different places.

Key:
[1] = system: ERK MAP Kinase; experiment: Beadlyte Cell Signaling Assay, phospho:total ERK MAP kinase; assay type: cell-based, human; settings: 2 mM, Beadlyte method, FIG. 5
Method: (§1) A series of primary sub-confluent corneal epithelial cultures (grown for 12 to 14 days, about 4−5×10^5 cells/well) were washed three times with […] buffered saline (PBS) and switched to an Earle's Balanced Salt Solution (EBSS, 300 mOsmols/kg) for 24 hours before treatment. The corneal epithelial cells were cultured for 1 hour in an equal volume (2.0 mL/well) of EBSS media or 400 mOsmols/kg media by adding 53 mM NaCl or sucrose, with either L-carnitine inner salt, betaine hydrochloride, erythritol, or xylitol (all at a concentration of 2 mM) that were pre-added 60 minutes before adding NaCl or sucrose. Samples without these osmoprotectants were also prepared and tested.
(§2) The adherent cells were lysed in Beadlyte® Buffer B (included in the Beadlyte® Cell Signaling buffer kit, Upstate Biotechnology, Lake Placid, N.Y.) containing an EDTA-free protease inhibitor cocktail tablet (Roche Applied Science, Indianapolis, Ind.) for 15 minutes. The cell extracts were centrifuged at 12,000×g for 15 minutes at room temperature and the supernatants were stored at −80° C. until they were analyzed by Western blot analysis. The total protein concentrations of the cell extracts were determined using a Micro BCA protein assay kit (Pierce, Rockford, Ill.).
In another series of experiments, the Beadlyte® Cell Signaling Assay was used. This assay is a fluorescent bead-based sandwich immunoassay. […]

[2] = system: corneal epithelial cells; experiment: Trans-epithelial electrical resistance (TEER) of layered air-lift corneal epithelial cultures exposed to hypertonic fluid; assay type: cell-based, rabbit; settings: for Osmoprotective benefit on TEER relative to hypertonic control, in words: 2 mM, 400 mOsmols/kg, 22 hours; for Concentration dependent effect on % TEER relative to the isotonic control: different concentrations, TEER measured 0 to 24 hours, FIG. 6
Description: In this experiment, corneal epithelial cells were isolated from the rabbit eye and grown under conditions so that they differentiate into a layered “air-lift” culture that includes basal, wing, and squamous cells. As they grow and differentiate, these cultures developed tight junctions between cells that provide the basis for a trans-epithelial electrical resistance (TEER) across the cell layers between the apical and basal surfaces. The TEER value is a sensitive measure of cell growth, differentiation and health.
After 5 days in culture during which the layered structure forms, different culture wells were exposed to hypertonic fluid (400 mOsmols/kg) with or without addition of one of 6 candidate compatible solutes at a low concentration (2 mM). The TEER was then measured after 22 hours of exposure. The TEER value was expressed as a percentage of the TEER value obtained from a similar culture under isotonic (300 mOsmol/kg) conditions.
Example 1 is repeated except that different concentrations of each of the candidate materials are used, and the TEER is measured at various times from 0 to 24 hours.
As in Example 1, the TEER variable is represented as % TEER relative to the isotonic control.
Example 4 was repeated except that compositions including combinations of compatible solutes were used. Compositions including only glycerol as a compatible solute were also tested.

[3] = system: JNK; experiment: Beadlyte Cell Signaling Assay, phosphorylated:total JNK; assay type: cell-based, human; settings: 2 mM, Beadlyte method, FIG. 3
Method: as §1, §2
In another series of experiments, the Beadlyte® Cell Signaling Assay was used. This assay is a fluorescent bead-based sandwich immunoassay. Each sample (10 μg/25 μL) was pipetted into a well of a 96-well plate and incubated with 25 μL of diluted 5× beads coupled to phospho-JNK, phospho-ERK, phospho-p38 or total JNK, or total ERK, or total p38 specific capture antibodies overnight. […]
The beads were washed and mixed with biotinylated specific reporter antibodies for phospho-MAPK or total-MAPK, followed by streptavidin-phycoerythrin. The amount of total or phospho-MAPK was then quantified by the Luminex 100™ system (Luminex, Austin, Tex.). Fifty events per bead were read, and the data output obtained from the Bio-Plex Manager software were exported to Microsoft Excel® for further analysis. […]

[4] = Component compatibility with stabilized chlorine dioxide preservative; assay type: physicochemical
Method: A composition including betaine and stabilized chlorine dioxide, as a preservative, was tested for component compatibility. […] Thus, betaine is not useful with certain preservatives, such as stabilized chlorine dioxide. However, betaine may advantageously be employed as a compatible solute in ophthalmic compositions which use other preservative systems, or which are free of preservatives, for example, in single or unit-dose applications.

[5] = system: phosphorylated c-jun N-terminal kinases (p-JNK1 and p-JNK2); experiment: Western blot of phosphorylated JNK1 and JNK2 in primary corneal epithelial cultures under hyperosmolar stress; assay type: cell-based, human; settings: 2 mM

| Compatibility with stabilized chlorine dioxide (Purite) preservative in a composition [4] | Compatibility with stabilized chlorine dioxide (Purite) preservative in a composition ([4]; listed as betaine) | Compound | Amount of ERK (phospho:total) relative to the hypertonic control [1] | Osmoprotective benefit on TEER relative to hypertonic control, in words [2] | Concentration dependent effect on % TEER relative to the isotonic control [2] | Amount of phospho-total JNK relative to the hypertonic control [3] | Levels of p-JNK1 and p-JNK2 (Western blot) in 300 mOsmols/kg cultures ([5]; 300 mOsmols/kg EBSS media) | JNK activation (levels of p-JNK1 and p-JNK2, Western blot intensity) compared to 400 mOsmols/kg media alone ([5]; pre-added 60 minutes, 1 hour in 400 mOsmols/kg media) |
| --- | --- | --- | --- | --- | --- | --- | --- | --- |
|  |  | OC[C@@H](O)[C@@H](O)CO [Erythritol] | reduced | best results among the polyols tested | dose-related response | reduced |  |  |
|  |  | OC[C@@H](O)[C@H](O)[C@@H](O)CO [Xylitol] | reduced | good results |  | reduced |  |  |
| incompatible | not fully compatible | C[N+](C)(C)CC(=O)O [Betaine, trimethyl glycine] |  |  |  |  |  |  |
|  |  | C[N+](C)(C)C[C@H](O)CC(=O)[O-] [Carnitine, L-carnitine inner salt] |  | produced the most benefit | dose-related response | reduced | less robust effect | definite decrease |
|  |  | O[C@H]1[C@H](O)[C@@H](O)[C@H](O)[C@@H](O)[C@H]1O [Myo-Inositol] |  | good results |  |  |  |  |
